Reference: ChEMBL document CHEMBL6078657, “Thiazolidinedione-based structure modification of ergosterol peroxide provides thiazolidinedione-conjugated derivatives as potent agents against breast cancer cells through a PI3K/AKT/mTOR pathway” (Bioorg Med Chem, 2025)

Key:
A549 = test: Antiproliferative activity against human A549 cells assessed as cell viability measured after 48 hrs incubation by MTT assay; format: functional, cell-based; conditions: A549, 48 h
MCF7 = test: Antiproliferative activity against human MCF7 cells assessed as cell viability measured after 48 hrs incubation by MTT assay; format: functional, cell-based; conditions: MCF7, 48 h
[1] = Antiproliferative activity against human MCF-10A cells assessed as cell viability measured after 48 hrs incubation by MTT assay; format: toxicity, cell-based
[2] = Selectivity index, ratio of IC50 for human MCF-10A cells to IC50 for human MCF7 cells; format: toxicity; conditions: MCF-10A cells and MCF7 cells, read-out: Selectivity Index
HepG2 = test: Antiproliferative activity against human HepG2 cells assessed as cell viability measured after 48 hrs incubation by MTT assay; format: functional, cell-based; conditions: HepG2, 48 h

SMILES	IC50 (A549) [µM]	IC50 (MCF7) [µM]	IC50 at 48 h [1] [µM]	selectivity ratio [2]	IC50 (HepG2) [µM]
CC(C)[C@@H](C)/C=C/[C@@H](C)[C@H]1CC[C@@H]2[C@]1(C)CC[C@H]1[C@]23C=C[C@]2(C[C@@H](OC(=O)NCCNC(=O)CN4C(=O)S/C(=C\c5ccc(Cl)cc5)C4=O)CC[C@]12C)OO3	8.91	5.9	28.9	4.9	8.92
CC(C)[C@@H](C)/C=C/[C@@H](C)[C@H]1CC[C@@H]2[C@]1(C)CC[C@H]1[C@]23C=C[C@]2(C[C@@H](OC(=O)NCCNC(=O)CN4C(=O)S/C(=C\C5CC5)C4=O)CC[C@]12C)OO3	3.32	5.49	35.9	6.55	6.02
CC(C)[C@@H](C)/C=C/[C@@H](C)[C@H]1CC[C@@H]2[C@]1(C)CC[C@H]1[C@]23C=C[C@]2(C[C@@H](OC(=O)N4CCN(C(=O)CN5C(=O)S/C(=C\c6ccc(C(C)(C)C)cc6)C5=O)CC4)CC[C@]12C)OO3	11.6	14.4	–	–	19.5
COc1cccc(/C=C2/SC(=O)N(CC(=O)O[C@H]3CC[C@]4(C)[C@H]5CC[C@]6(C)[C@@H]([C@H](C)/C=C/[C@H](C)C(C)C)CC[C@H]6[C@@]56C=C[C@]4(C3)OO6)C2=O)c1	10.8	17	–	–	15.3
Cc1ccc(/C=C2\SC(=O)N(CC(=O)NCCNC(=O)O[C@H]3CC[C@]4(C)[C@H]5CC[C@]6(C)[C@@H]([C@H](C)/C=C/[C@H](C)C(C)C)CC[C@H]6[C@@]56C=C[C@]4(C3)OO6)C2=O)cc1	7.18	4.71	24.1	5.11	6.82
CC(C)[C@@H](C)/C=C/[C@@H](C)[C@H]1CC[C@@H]2[C@]1(C)CC[C@H]1[C@]23C=C[C@]2(C[C@@H](OC(=O)N4CCN(C(=O)CN5C(=O)S/C(=C\C6CC6)C5=O)CC4)CC[C@]12C)OO3	6.06	7.17	–	–	8.97
CC(C)[C@@H](C)/C=C/[C@@H](C)[C@H]1CC[C@@H]2[C@]1(C)CC[C@H]1[C@]23C=C[C@]2(C[C@@H](OC(=O)CN4C(=O)S/C(=C/c5ccccc5F)C4=O)CC[C@]12C)OO3	11.4	14.4	–	–	12.5
CC(C)[C@@H](C)/C=C/[C@@H](C)[C@H]1CC[C@@H]2[C@]1(C)CC[C@H]1[C@]23C=C[C@]2(C[C@@H](OC(=O)N4CCN(C(=O)CN5C(=O)S/C(=C\c6ccc(F)cc6)C5=O)CC4)CC[C@]12C)OO3	9.34	12.2	–	–	12
CC(C)[C@@H](C)/C=C/[C@@H](C)[C@H]1CC[C@@H]2[C@]1(C)CC[C@H]1[C@]23C=C[C@]2(C[C@@H](OC(=O)CN4C(=O)S/C(=C/c5ccccc5)C4=O)CC[C@]12C)OO3	13.7	12.5	–	–	17.6
CC(C)[C@@H](C)/C=C/[C@@H](C)[C@H]1CC[C@@H]2[C@]1(C)CC[C@H]1[C@]23C=C[C@]2(C[C@@H](OC(=O)CN4C(=O)S/C(=C/c5cccc6ccccc56)C4=O)CC[C@]12C)OO3	10.3	14.7	–	–	6.08
CC(C)[C@@H](C)/C=C/[C@@H](C)[C@H]1CC[C@@H]2[C@]1(C)CC[C@H]1[C@]23C=C[C@]2(C[C@@H](OC(=O)N4CCN(C(=O)CN5C(=O)S/C(=C\c6ccc(F)c(Cl)c6)C5=O)CC4)CC[C@]12C)OO3	12.5	15.2	–	–	13.7
CC(C)[C@@H](C)/C=C/[C@@H](C)[C@H]1CC[C@@H]2[C@]1(C)CC[C@H]1[C@]23C=C[C@]2(C[C@@H](OC(=O)NCCNC(=O)CN4C(=O)S/C(=C\c5ccccc5)C4=O)CC[C@]12C)OO3	11.4	6.8	41.6	6.12	7.95
CC(C)[C@@H](C)/C=C/[C@@H](C)[C@H]1CC[C@@H]2[C@]1(C)CC[C@H]1[C@]23C=C[C@]2(C[C@@H](OC(=O)NCCNC(=O)CN4C(=O)S/C(=C\c5ccc(Br)cc5)C4=O)CC[C@]12C)OO3	7.9	4.39	45.3	10.3	7.34
COc1ccc(/C=C2\SC(=O)N(CC(=O)NCCNC(=O)O[C@H]3CC[C@]4(C)[C@H]5CC[C@]6(C)[C@@H]([C@H](C)/C=C/[C@H](C)C(C)C)CC[C@H]6[C@@]56C=C[C@]4(C3)OO6)C2=O)cc1OC	8.54	5.33	20.8	3.89	6.18
CC(C)[C@@H](C)/C=C/[C@@H](C)[C@H]1CC[C@H]2C3=CC=C4C[C@@H](OC(=O)NCCNC(=O)CN5C(=O)S/C(=C\C6CC6)C5=O)CC[C@]4(C)[C@H]3CC[C@]12C	> 80	> 80	–	–	> 80
Cc1ccc(/C=C2\SC(=O)N(CC(=O)N3CCN(C(=O)O[C@H]4CC[C@]5(C)[C@H]6CC[C@]7(C)[C@@H]([C@H](C)/C=C/[C@H](C)C(C)C)CC[C@H]7[C@@]67C=C[C@]5(C4)OO7)CC3)C2=O)cc1	7.01	9.45	–	–	10.4
COc1ccc(/C=C2\SC(=O)N(CC(=O)N3CCN(C(=O)O[C@H]4CC[C@]5(C)[C@H]6CC[C@]7(C)[C@@H]([C@H](C)/C=C/[C@H](C)C(C)C)CC[C@H]7[C@@]67C=C[C@]5(C4)OO7)CC3)C2=O)cc1OC	7.75	13.6	–	–	21.5
COc1ccc(/C=C2/SC(=O)N(CC(=O)O[C@H]3CC[C@]4(C)[C@H]5CC[C@]6(C)[C@@H]([C@H](C)/C=C/[C@H](C)C(C)C)CC[C@H]6[C@@]56C=C[C@]4(C3)OO6)C2=O)cc1	9.91	18.4	–	–	10.7
COc1ccc(/C=C2/SC(=O)N(CC(=O)O[C@H]3CC[C@]4(C)[C@H]5CC[C@]6(C)[C@@H]([C@H](C)/C=C/[C@H](C)C(C)C)CC[C@H]6[C@@]56C=C[C@]4(C3)OO6)C2=O)cc1OC	15.2	13.6	–	–	18
CC(C)[C@@H](C)/C=C/[C@@H](C)[C@H]1CC[C@@H]2[C@]1(C)CC[C@H]1[C@]23C=C[C@]2(C[C@@H](OC(=O)N4CCN(C(=O)CN5C(=O)S/C(=C\c6ccsc6)C5=O)CC4)CC[C@]12C)OO3	8.14	13.6	–	–	16.8
CC(C)[C@@H](C)/C=C/[C@@H](C)[C@H]1CC[C@@H]2[C@]1(C)CC[C@H]1[C@]23C=C[C@]2(C[C@@H](OC(=O)N4CCN(C(=O)CN5C(=O)S/C(=C\c6ccc(Br)cc6)C5=O)CC4)CC[C@]12C)OO3	5.74	10.4	–	–	12.4
CC(C)[C@@H](C)/C=C/[C@@H](C)[C@H]1CC[C@@H]2[C@]1(C)CC[C@H]1[C@]23C=C[C@]2(C[C@@H](OC(=O)CN4C(=O)S/C(=C/c5ccc(F)cc5)C4=O)CC[C@]12C)OO3	11.7	16.1	–	–	14.7
COc1ccc(/C=C2\SC(=O)N(CC(=O)N3CCN(C(=O)O[C@H]4CC[C@]5(C)[C@H]6CC[C@]7(C)[C@@H]([C@H](C)/C=C/[C@H](C)C(C)C)CC[C@H]7[C@@]67C=C[C@]5(C4)OO7)CC3)C2=O)cc1	6.24	13.7	–	–	8.85
CC(C)/C=C1/SC(=O)N(CC(=O)O[C@H]2CC[C@]3(C)[C@H]4CC[C@]5(C)[C@@H]([C@H](C)/C=C/[C@H](C)C(C)C)CC[C@H]5[C@@]45C=C[C@]3(C2)OO5)C1=O	7.65	20.4	–	–	14.6
CC(C)[C@@H](C)/C=C/[C@@H](C)[C@H]1CC[C@@H]2[C@]1(C)CC[C@H]1[C@]23C=C[C@]2(C[C@@H](OC(=O)N4CCN(C(=O)CN5C(=O)S/C(=C\c6ccccc6F)C5=O)CC4)CC[C@]12C)OO3	6.95	15.8	–	–	10.8
COc1ccc(/C=C2\SC(=O)N(CC(=O)NCCNC(=O)O[C@H]3CC[C@]4(C)[C@H]5CC[C@]6(C)[C@@H]([C@H](C)/C=C/[C@H](C)C(C)C)CC[C@H]6[C@@]56C=C[C@]4(C3)OO6)C2=O)c(OC)c1OC	5.08	4.26	30.1	7.07	5.77
CC(C)[C@@H](C)/C=C/[C@@H](C)[C@H]1CC[C@@H]2[C@]1(C)CC[C@H]1[C@]23C=C[C@]2(C[C@@H](OC(=O)CN4C(=O)S/C(=C/c5ccc(Cl)cc5)C4=O)CC[C@]12C)OO3	9.18	9.92	–	–	13.5
